Patent US20260306452A1, “5-METHOXY-N,N-DIMETHYLTRYPTAMINE (5-MEO-DMT) PHARMACEUTICAL COMPOSITIONS” (Beckley Psytech Limited, priority 2023, published 2026)
Where a name gives a salt, the structure may show the parent alone. Read-outs that look alike come from different tables or passages of the source.

Columns and labels:
[1] = Phase 1 single ascending dose study, intranasal 5-MeO-DMT HCl, plasma pharmacokinetics; type: in vivo, human (healthy subjects)
Protocol: In an embodiment, there is provided a dose-proportional salt of 5-MeO-DMT for use in the methods disclosed herein. In an embodiment, the dose-proportional salt of 5-MeO-DMT is the benzoate salt. A double-blind, randomised, Phase 1, single ascending dose study to evaluate the safety, tolerability and pharmacokinetic profile of intranasal 5-MeO-DMT HCl (5-MeO-DMT HCl, HPMC, water for injection (WFI) and a sodium hydroxide solution to adjust pH) in healthy subjects was performed.

[2] = Subjective Dose Intensity (SDI) / duration of the trip; type: in vivo, human
[3] = Stability profile
[4] = 30-item Mystical Experience Questionnaire (MEQ30), mystical / peak experience; type: in vivo, human
Excerpt: The MEQ30 is a self-report measure that has been used to measure mystical-type experiences in studies of psychedelics. It is known that the occurrence of a mystical experience, following treatment with a psychedelic, is a primary predictor of therapeutic outcomes in patients. Typically, a complete mystical experience is defined as scoring 60% or more on all four factors of the MEQ30. The four factors of the MEQ30 are: mystical, positive mood, transcendence of time and space, and ineffability. Subjects being treated with the 5-MeO-DMT salt are coached prior to dosing, but nevertheless for some subjects, a rapid onset of an intense Mystical Experience can be unsettling. In such a scenario, the medical practitioners and associated support system is also put under an additional monitoring and care load. So, the frequency/likelihood of rapid onset of an intense Mystical Experience using the 5-MeO-DMT salt should be minimised or substantially eliminated.
Each quadrant of a pie is fully coloured if a value equal to or greater than 3 is reached for that dimension (wherein the four quadrants represent the four factors of the MEQ30: mystical, positive mood, transcendence of time and space, and ineffability). Each pie represents a single individual who received the respective dose. It can be seen that the 4/6 individuals who received 12 mg total dose of 5-MeO-DMT benzoate in a biphasic fashion achieved mystical experiences, which represents a 66% success rate.

[5] = type: in vivo, human
Excerpt: For example, some subjects report nasal discomfort when treated with a single intranasal dose of a salt of 5-MeO-DMT. Additionally, some subjects experienced nausea and vomiting when given a higher single dose of a salt of 5-MeO-DMT. So, the frequency/likelihood of physical discomfort when using the 5-MeO-DMT salt should be minimised or substantially eliminated.

[6] = Hygroscopicity / water uptake; type: physicochemical; conditions: for total water uptake: between 0% RH and 90% RH at 25° C.
Protocol: (§1) In an embodiment, the 5-MeO-DMT is administered as a crystalline form of the benzoate salt. Crystalline forms of the benzoate salt are disclosed in WO2021250434 and are incorporated herein. Crystalline forms of the hydrochloride salt are also disclosed in WO2021250434 and are incorporated herein. In an embodiment, crystalline 5-MeO-DMT hydrochloride is characterised by peaks in an X-ray powder diffraction (XRPD) diffractogram at 2θ values of 9.2°±0.1°, 12.2°±0.1°, 14.1°±0.1°, 15.0°±0.1°, 18.5°±0.1°, and 19.5°±0.1°, as measured using an X-ray wavelength of 1.5406 Å. In an embodiment, the 5-MeO-DMT salt is a non-hygroscopic salt. […] The non-hygroscopic, highly soluble HBr salt of 5-MeO-DMT therefore affords the advantage of removing the need for costly and burdensome processing measures, for example the need for low humidity manufacturing environment.

[7] = type: in vivo, human (healthy subjects)
Protocol: A double-blind, randomised, Phase 1, single ascending dose study to evaluate the safety, tolerability and pharmacokinetic profile of intranasal 5-MeO-DMT benzoate in healthy subjects was performed.

[8] = Irritation tolerability; conditions: in particular compared to the chloride salt
[9] = Solubility of salts; type: physicochemical; conditions: compared to moderately hygroscopic salts, e.g. benzoate or oxalate
Protocol: as §1

[10] = 6 mg intranasal, single nostril
[11] = 8 mg intranasal, single nostril
[12] = 10 mg intranasal, single nostril
[13] = 12 mg (biphasic): 4 mg one nostril then 8 mg other nostril
[14] = 12 mg biphasic vs 12 mg monophasic
[15] = 12 mg intranasal, single nostril (monophasic)
[16] = 12 mg total dose, biphasic (4 mg + 8 mg)

COc1ccc2[nH]cc(CCN(C)C)c2c1.Cl [5-MeO-DMT HCl]
mean concentration profiles between doses ([1]; 5 mg, 8 mg, 10 mg, 11 mg and 14 mg intranasal): substantially similar | dose-proportional pharmacokinetics ([1]; intranasal, healthy subjects): does not display dose-proportional pharmacokinetics

COc1ccc2[nH]cc(CCN(C)C)c2c1.O=C(O)c1ccccc1 [5-MeO-DMT benzoate, 5-methoxy-N,N-dimethyltryptamine (5-MeO-DMT) Benzoate]
Duration of the trip (estimate based on intensity) ([2]; 4 mg intranasal): 18 min | Duration of the trip (estimate based on intensity) [2, 10]: 31 min | Duration of the trip (estimate based on intensity) [2, 11]: 40 min | Duration of the trip (estimate based on intensity) [2, 12]: 46 min | Duration of the trip (estimate based on intensity) [2, 13]: 70 min | length of psychedelic experience, comparison [2, 14]: longer psychedelic experience | duration of ‘trip’, comparison ([2]; 12 mg biphasic vs other doses): longer duration of ‘trip’ | Duration of the trip (estimate based on intensity) [2, 15]: 50 min | subjective intensity/mystical experience despite lower peak plasma concentration ([2]; biphasic administration): did not result in a lower subjective intensity/mystical experience | stability profile [3]: good stability profile | efficacy ([4]; 4 mg first dose followed by 8 mg second dose): good efficacy | Peak exp. (%) ([4]; 4 mg intranasal): 0% | Peak exp. (%) [4, 10]: 25% | Peak exp. (%) [4, 11]: 20% | Peak exp. (%) [4, 12]: 60% | Peak exp. (%) [4, 13]: 66% | % peak experience, comparison ([4]; 12 mg biphasic vs other doses): the highest % peak experience | Peak exp. (%) [4, 15]: 60% | individuals who achieved mystical experiences [4, 16]: 4/6 | success rate (mystical experiences, MEQ30) [4, 16]: 66% | MEQ30 score ([4]; single intranasal dose): > 3 | success rate (mystical experiences, MEQ30) ([4]; singular 10 mg dose): 60% | success rate (mystical experiences, MEQ30) ([4]; singular 12 mg dose): 60% | Vomiting (% subj. incl. PBO) ([5]; 4 mg intranasal): 33% | Vomiting (% subj. incl. PBO) [5, 10]: 0% | Vomiting (% subj. incl. PBO) [5, 11]: 0% | Vomiting (% subj. incl. PBO) [5, 12]: 0% | Vomiting (% subj. incl. PBO) [5, 13]: 17% | Vomiting (% subj. incl. PBO) [5, 15]: 29% | overall tolerability profile ([5]; intranasal): good (and better than the corresponding and better known chloride salt) | hygroscopicity [6]: moderately hygroscopic | AUC inf ([7]; 4 mg intranasal): 5.0 ng·h/mL | Cmax ([7]; 4 mg intranasal): 8.7 ng/mL | Tmax ([7]; 4 mg intranasal): 7.0 min | T½ ([7]; 4 mg intranasal): 22.4 min | AUC inf [7, 10]: 9.8 ng·h/mL | Cmax [7, 10]: 14.9 ng/mL | Tmax [7, 10]: 9.0 min | T½ [7, 10]: 22.2 min | AUC inf [7, 11]: 14 ng·h/mL | Cmax [7, 11]: 22.1 ng/mL | Tmax [7, 11]: 10.6 min | T½ [7, 11]: 17.7 min | AUC inf [7, 12]: 15.4 ng·h/mL | Cmax [7, 12]: 32.3 ng/mL | Tmax [7, 12]: 8.4 min | T½ [7, 12]: 22.7 min | AUC inf [7, 13]: 10.7 ng·h/mL | Cmax [7, 13]: 16.7 ng/mL | Tmax [7, 13]: 27 min | T½ [7, 13]: 16.1 min | peak plasma concentration, comparison [7, 14]: lower peak plasma concentration | rise to peak mean plasma concentration [7, 14]: slower rise to peak mean plasma concentration | mean Cmax ([7]; 12 mg dosage, intranasal): 29 ng/mL | AUC inf [7, 15]: 23 ng·h/mL | Cmax [7, 15]: 28.9 ng/mL | Tmax [7, 15]: 15.3 min | T½ [7, 15]: 26.6 min | observed peak plasma concentration vs prediction ([7]; biphasic administration): significantly lower than that which was expected | dose linearity of pharmacokinetics ([7]; intranasal, healthy subjects): approximately dose linear | irritation tolerability [8]: good irritation tolerability

Br.COc1ccc2[nH]cc(CCN(C)C)c2c1 [5-MeO-DMT hydrobromide]
solubility [9]: high solubility | hygroscopicity [6]: substantially non-hygroscopic

COc1ccc2[nH]cc(CCN(C)C)c2c1 [5-MeO-DMT ketoglutarate]
rapid increase of water uptake ([6]; 90% RH): 28.140 w/w | gradual water uptake, lower humidity ([6]; 403RH as printed): 0.13 % w/w | gradual water uptake, upper humidity ([6]; 801 RH as printed): 2.55 w/w

COc1ccc2[nH]cc(CCN(C)C)c2c1.O=C(O)C(=O)O [5-MeO-DMT oxalate]
hygroscopicity [6]: moderately hygroscopic

COc1ccc2[nH]cc(CCN(C)C)c2c1 [5-MeO-DMT phosphate]
hygroscopicity ([6]; listed as phosphate salt): slightly hygroscopic

COc1ccc2[nH]cc(CCN(C)C)c2c1 [5-MeO-DMT tartrate]
total water uptake [6]: approximately 3.3 % w/w | hygroscopicity ([6]; listed as tartrate salt of 5-MeO-DMT): moderately hygroscopic

COc1ccc2[nH]cc(CCN(C)C)c2c1 [5-MeO-DMT tosylate]
total water uptake [6]: approximately 1.9 % w/w | hygroscopicity ([6]; listed as tosylate salt): slightly hygroscopic

COc1ccc2[nH]cc(CCN(C)C)c2c1 [5-MeO-DMT, 5-methoxy-N,N-dimethyltryptamine]
shape of mean plasma concentration curve ([7]; biphasic administration): m-like biphasic curve

CN(C)CCc1c[nH]c2ccc(O)cc12 [Bufotenin]
detection of the O-demethylated metabolite in plasma ([7]; 6 mg dose level of 5-MeO-DMT benzoate, after the 16 minutes time point): only detected at very low levels
